US8895769B2, “Silicon-containing carboxylic acid derivative” (Kemphys Ltd., priority 2011, dated 2014)

Key:
rat Chung model = experiment: Analgesic action test using Chung model; type: in vivo; conditions: single oral administration, 30 minutes after, physical stimulation, N=6
Experimental: A rat Chung model was used. 4-Amino-3-(trimethylsilyl)butanoic acid (Compound A), 4-amino-3-(trimethylsilylmethyl)butanoic acid (Compound B), 4-amino-3-[(1-methyl-1-silacyclopentan-1-yl)methyl]butanoic acid (Compound C), 4-(1-methyl-1-silacyclohexan-1-yl)-3-cyanobutanoic acid (Compound D), and pregabalin (positive control, Compound E) were each orally administered once to the rats, and analgesic action was examined 30 minutes thereafter on the basis of pain threshold values obtained with a physical stimulation (total number of groups: 11, N=6). As a result, the pain threshold values (g) of the agent-administered groups and the control group were as follows. • Control (0.5% MC): 5.3±0.4 • Compound A: 7.8±0.5 (60 mg/kg), 6.2±0.4 (20 mg/kg) • Compound B: 7.9±0.4 (60 mg/kg), 5.4±0.2 (20 mg/kg) • Compound C: 8.8±0.3 (60 mg/kg), 5.7±0.6 (20 mg/kg) • Compound D: 7.3±0.5 (60 mg/kg), 4.8±0.2 (20 mg/kg) • Compound E: 8.3±0.2 (30 mg/kg), 6.3±0.3 (10 mg/kg)

gabapentin receptor = molecular target: T1, gabapentin receptor (Rattus norvegicus, UniProt P54290); experiment: Binding to gabapentin receptor (inhibition of [3H]gabapentin binding); conditions: compound 1 μM; 0.02 μM [3H] gabapentin; receptor from brains of Wister rats
T1 construct: a gabapentin receptor was prepared from the brains of Wister rats; from tissue; host or cells: Wistar rat brain, prepared by the method of Suman-Chauhan et al. 1993
Experimental: According to the method of Suman-Chauhan et al. (Eur. J. Pharmacol, 244 (3), pp. 293-301, 1993), a gabapentin receptor was prepared from the brains of Wister rats. Binding of the following compounds (1 μM) to the gabapentin receptor was investigated on the basis of inhibition of binding of gabapentin in the presence of 0.02 μM [^3H] gabapentin. As a result, the following inhibition ratios were observed. • 4-Amino-3-(trimethylsilyl)butanoic acid: 35% • 4-Amino-3-(t-butyldimethylsilyl)butanoic acid: 13% • 4-Amino-3-(trimethylsilylmethyl)butanoic acid: 28% • 4-Amino-3-(dimethyl-n-octylsilyl)butanoic acid: 32%

T1 sequence (P54290 25-944 limits assumed): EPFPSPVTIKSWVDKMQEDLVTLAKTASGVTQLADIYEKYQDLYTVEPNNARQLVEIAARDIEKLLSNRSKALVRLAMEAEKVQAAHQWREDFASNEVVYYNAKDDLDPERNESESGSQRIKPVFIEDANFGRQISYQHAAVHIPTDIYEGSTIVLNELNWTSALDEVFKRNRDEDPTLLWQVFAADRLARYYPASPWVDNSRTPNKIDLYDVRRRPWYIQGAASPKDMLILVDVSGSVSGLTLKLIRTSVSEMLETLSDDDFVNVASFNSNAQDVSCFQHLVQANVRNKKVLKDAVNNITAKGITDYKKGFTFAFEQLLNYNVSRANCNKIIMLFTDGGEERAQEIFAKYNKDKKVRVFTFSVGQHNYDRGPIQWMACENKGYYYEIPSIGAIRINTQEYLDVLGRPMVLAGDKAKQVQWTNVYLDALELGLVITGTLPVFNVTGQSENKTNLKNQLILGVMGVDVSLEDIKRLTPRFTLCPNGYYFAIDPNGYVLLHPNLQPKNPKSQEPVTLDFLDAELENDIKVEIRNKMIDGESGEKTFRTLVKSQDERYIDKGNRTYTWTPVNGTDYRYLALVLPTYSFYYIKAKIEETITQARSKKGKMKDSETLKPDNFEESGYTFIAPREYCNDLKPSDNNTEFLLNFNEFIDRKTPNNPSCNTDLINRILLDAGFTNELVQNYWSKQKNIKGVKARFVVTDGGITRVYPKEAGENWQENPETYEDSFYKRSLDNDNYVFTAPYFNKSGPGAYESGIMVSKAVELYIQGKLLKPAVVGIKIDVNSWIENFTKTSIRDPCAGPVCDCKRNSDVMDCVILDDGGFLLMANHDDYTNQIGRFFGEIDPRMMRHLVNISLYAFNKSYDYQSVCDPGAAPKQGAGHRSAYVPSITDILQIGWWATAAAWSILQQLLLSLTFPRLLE
T1 sequence (P54290 945-1091 limits assumed): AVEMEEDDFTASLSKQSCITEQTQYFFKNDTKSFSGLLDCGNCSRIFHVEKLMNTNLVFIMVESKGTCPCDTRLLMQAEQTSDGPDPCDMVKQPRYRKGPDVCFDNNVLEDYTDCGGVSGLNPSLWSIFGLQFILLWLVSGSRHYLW

## C[Si]1(C(CN)CC(=O)O)CCCCC1 (stereo not drawn)
other
  melting point: 160 to 161.5 °C

## CC(C)C[C@H](CN)CC(=O)O [Compound E, (S)-3-(aminomethyl)-5-methylhexanoic acid, reference compound]
Rat Chung model; 10 mg/kg
  pain threshold value: 6.3 ± 0.3 g
Rat Chung model; 30 mg/kg
  pain threshold value: 8.3 ± 0.2 g

## C[Si]1(CC(CN)CC(=O)O)CCCC1 (stereo not drawn) [Compound C, 4-amino-3-[(1-methyl-1-silacyclopentan-1-yl)methyl]butanoic acid]
other
  melting point: 133 to 135 °C
Rat Chung model; 20 mg/kg
  pain threshold value: 5.7 ± 0.6 g
Rat Chung model; 60 mg/kg
  pain threshold value: 8.8 ± 0.3 g

## CC(C)(C)[Si](C)(C)C(CN)CC(=O)O (stereo not drawn) [4-amino-3-(tert-butyldimethylsilyl)butanoic acid]
Gabapentin receptor
  inhibition ratio (inhibition of binding of gabapentin): 13%

## C[Si]1(CC(C#N)CC(=O)O)CCCCC1 (stereo not drawn) [Compound D, 4-(1-methyl-1-silacyclohexan-1-yl)-3-cyanobutanoic acid]
Rat Chung model; 20 mg/kg
  pain threshold value: 4.8 ± 0.2 g
Rat Chung model; 60 mg/kg
  pain threshold value: 7.3 ± 0.5 g

## C[Si](C)(C)C(CN)CC(=O)O (stereo not drawn) [Compound A, 4-amino-3-(trimethylsilyl)butanoic acid]
other
  melting point: 199 to 201 °C
Rat Chung model; 20 mg/kg
  pain threshold value: 6.2 ± 0.4 g
Rat Chung model; 60 mg/kg
  pain threshold value: 7.8 ± 0.5 g
Gabapentin receptor
  inhibition ratio (inhibition of binding of gabapentin): 35%

## CCCCCCCC[Si](C)(C)C(CN)CC(=O)O (stereo not drawn) [4-amino-3-(dimethyl-n-octylsilyl)butanoic acid]
Gabapentin receptor
  inhibition ratio (inhibition of binding of gabapentin): 32%

## C[Si](C)(C)CC(CN)CC(=O)O (stereo not drawn) [Compound B, 4-amino-3-(trimethylsilylmethyl)butanoic acid]
Rat Chung model; 20 mg/kg
  pain threshold value: 5.4 ± 0.2 g
Rat Chung model; 60 mg/kg
  pain threshold value: 7.9 ± 0.4 g
Gabapentin receptor
  inhibition ratio (inhibition of binding of gabapentin): 28%

## C[Si]1(CC(CN)CC(=O)O)CCCCC1 (stereo not drawn)
other
  melting point: 140.5 to 143 °C
